Results taken from US12097222B2, “Methods for attenuating viral infection and for treating lung injury” (Spiritus Therapeutics, Inc., priority 2019, dated 2024).
Marks after values point to notes of the source that are not given here.

Columns and labels:
[1] = system: MERS-CoV; details: in vitro; cited from earlier work
[2] = system: MERS-CoV; details: vs untreated animals; cited from earlier work
[3] = system: myofibroblasts from mouse lungs 21 day post BLM; test: Double transfection of myofibroblasts with miR-29a mimic and miR-199-3p inhibitor; format: cell-based; details: mouse isolates (data not shown)
[4] = system: myofibroblasts isolated from lungs of patients with IPF; test: as above; format: cell-based, human
[5] = system: ER; test: ERE luciferase reporter (ER transcriptional activation) in hASCs
[6] = system: MERS-CoV; details: in vitro; cited from earlier work; remark: listed apart in the source
[7] = system: AR mRNA; test: AR mRNA expression in lungs of BLM-treated male mice
[8] = system: BLM-induced lung injury in 22-month old male C57BL/6 mice; test: BLM-induced pulmonary fibrosis in aged mice, ASCs given on day 12; format: in vivo, mouse; details: n = 4-5/group
[9] = biological target: T1, CXCR4 (Mus musculus, UniProt P70658); details: cited from earlier work
T1 construct: host or cells: BM-MSCs (endogenous receptor)

[10] = system: MSC migration; details: cited from earlier work
[11] = double transfection miR-29a mimic + miR-199-3p inhibitor, 48 hours post-transfection
[12] = lung tissue, day 21, ASCs on day 12 post-BLM

T1 sequence (P70658 whole entry): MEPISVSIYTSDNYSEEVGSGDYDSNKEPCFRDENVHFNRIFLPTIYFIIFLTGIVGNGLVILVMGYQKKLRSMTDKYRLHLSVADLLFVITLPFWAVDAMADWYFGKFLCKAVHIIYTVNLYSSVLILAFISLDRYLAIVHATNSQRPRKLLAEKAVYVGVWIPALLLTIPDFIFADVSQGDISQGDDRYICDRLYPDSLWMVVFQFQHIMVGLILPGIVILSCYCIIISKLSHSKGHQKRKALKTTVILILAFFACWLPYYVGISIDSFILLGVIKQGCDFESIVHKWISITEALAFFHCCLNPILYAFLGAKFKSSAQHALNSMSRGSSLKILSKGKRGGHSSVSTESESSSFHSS

## COc1c(C)c2c(c(O)c1C/C=C(\C)CCC(=O)O)C(=O)OC2 [MPA, Mycophenolic acid]
[1]
  inhibition activity against MERS-CoV: strong inhibition activity
[2]
  disease outcome and viral loads: developed severe and/or fatal disease with higher mean viral loads

## miR-199-3p inhibitor: plasmid containing miR-199-3p inhibitor AACCAATGTGCAGACTACTG (SEQ ID NO: 2), Exiqon (described as plasmid-borne inhibitor, chemistry not given here)
[3]
  CAV-1 expression: increased CAV-1 expression
[4]; co-transfection with miR-29a mimic
  downregulation of miR-199-3p expression (RT-PCR): at least 100 fold
[4]; [11]
  CAV-1 expression (western): increased CAV-1 expression

## C[C@]12CC[C@@H]3c4ccc(O)cc4C[C@@H](CCCCCCCCC[S+]([O-])CCCC(F)(F)C(F)(F)F)[C@H]3[C@@H]1CC[C@@H]2O (stereo partly shown) [ICI 182,780, fulvestrant]
[5]; hASCs, with E2 1 or 10 nM
  block of E2-induced ER transcriptional activation: able to block activation by E2

## Cc1cccc(C)c1OCC(=O)N[C@@H](Cc1ccccc1)[C@@H](O)C[C@H](Cc1ccccc1)NC(=O)[C@H](C(C)C)N1CCCNC1=O [lopinavir]
[6]
  50% effective cytotoxic concentration (EC50) against MERS-CoV: suboptimal

## miR-29a mimic: plasmid containing miR-29a mimic AACCGATTTCAGATGGTGCT (SEQ ID NO: 1), Exiqon (described as plasmid-borne mimic, chemistry not given here)
[3]
  MMP-2 activity: decreased MMP-2 activity
[4]; co-transfection with miR-199-3p inhibitor
  Upregulation of miR-29a (RT-PCR): > 5000 fold
[4]; [11]
  MMP-2 activity (zymography): decreased MMP-2 activity

## bleomycin sulfate [BLM]
[7]; BLM-treated male mice
  increase of AR mRNA in lungs: six-fold increase
[7]; lungs of BLM-treated male mice (n = 15) vs saline (n = 16), p < 0.05
  R mRNA expression/18s: 2.0 ± 0.5
[8]; day 7 after intratracheal BLM 2.0 U/kg (before ASC administration on day 12)
  Interval weight change at day 7 (mean ± SEM): −14.2 ± 1.7%^a
[8]; day 21 sacrifice, BLM 2.0 U/kg, ASCs 5×10^5 by tail vein on day 12
  Overall weight change at day 21 (mean ± SEM): −27.3 ± 3.7%^aa
[8]; [12]
  Collagen type 1α1 mRNA/18s: 213 ± 63
  TNF-α mRNA/18S: 0.80 ± 0.180^a
  αvintegrin mRNA/18S: 1.09 ± 0.14^a

## C[C@]12CC[C@@H]3c4ccc(O)cc4CC[C@H]3[C@@H]1CC[C@@H]2O [E2, 17β-estradiol]
[5]; hASCs from post-menopausal women
  ER transcriptional activation (luciferase/B-gal): less than a two-fold change
[5]; hASCs from pre-menopausal women, E2 10 nM
  ER transcriptional activation (luciferase/B-gal): greater than sixfold
[5]; hASCs from pre-menopausal women, E2 0.1 and 1 nm
  ER transcriptional activation (luciferase/B-gal): greater than five-fold

## TN14003
[9]
  inhibition of SDF-1 promoted chemotactic migration of BM-MSCs: completely inhibited

## COc1cccc(-c2cc(=O)c3ccccc3o2)c1N [PD98059]
[10]
  effect on IGF-1-induced increase in MSC migration in response to SDF-1: not
